Assay results from ChEMBL document CHEMBL4680196, “Structurally novel PI3Kδ/γ dual inhibitors characterized by a seven-membered spirocyclic spacer: The SARs investigation and PK evaluation” (Eur J Med Chem, 2020).

How the values were obtained:
[1] = target: PI3-kinase p110-delta/p85-alpha (Homo sapiens, UniProt O00329)
SU-DHL-6 [2] = assay: Antiproliferative activity against human SU-DHL-6 cells assessed as reduction in cell viability measured after 72 hrs by MTT assay; type: functional
Homo sapiens [3] = species: Homo sapiens
[4] = target: Phosphatidylinositol 3-kinase regulatory subunit beta/Phosphatidylinositol 4,5-bisphosphate 3-kinase catalytic subunit beta isoform (Homo sapiens, UniProt P42338)
[5] = Clearance in Sprague-Dawley rat at 5 mg/kg, […] by UHPLC-LC/MS analysis; type: ADME, organism-based; details: in vivo
[6] = AUC (0 to t) in Sprague-Dawley rat at 5 mg/kg, po by UHPLC-LC/MS analysis; type: ADME, organism-based; set-up: dose 5 mg/kg; details: in vivo
[7] = Elimination half life in Sprague-Dawley rat at 5 mg/kg, po by UHPLC-LC/MS analysis; type: ADME, organism-based; details: in vivo, read-out: beta t1/2 (converted)
SU-DHL-6 [8] = assay: Inhibition of PI3K in human SU-DHL-6 cells assessed as reduction in AKT phosphorylation at Ser473 residues after 2 hrs by Western blot analysis; type: cell-based
[9] = target: PI3-kinase p110-alpha/p85-alpha (Homo sapiens, UniProt P42336)
[10] = Oral bioavailability in Sprague-Dawley rat at 5 mg/kg by UHPLC-LC/MS analysis; type: ADME, organism-based; details: in vivo
SU-DHL-6 [11] = assay: Inhibition of PI3K in human SU-DHL-6 cells assessed as reduction in S6K1 phosphorylation at Thr389 residues after 2 hrs by Western blot analysis; type: cell-based
[12] = Volume of distribution at steady state in Sprague-Dawley rat at 5 mg/kg, iv or po by UHPLC-LC/MS analysis; type: ADME, organism-based; details: in vivo, read-out: Vdss
Homo sapiens [13] = species: Homo sapiens; remark: listed apart in the source
[14] = AUC (0 to t) in Sprague-Dawley rat at 5 mg/kg, iv by UHPLC-LC/MS analysis; type: ADME, organism-based; set-up: dose 5 mg/kg; details: in vivo
[15] = target: Phosphatidylinositol 4,5-bisphosphate 3-kinase catalytic subunit gamma isoform (Homo sapiens, UniProt P48736)
Homo sapiens [16] = species: Homo sapiens; remark: listed apart in the source
[17] = Elimination half life in Sprague-Dawley rat at 5 mg/kg, iv by UHPLC-LC/MS analysis; type: ADME, organism-based; details: in vivo, read-out: beta t1/2 (converted)

Chain of PI3-kinase p110-delta/p85-alpha (P27986 whole entry): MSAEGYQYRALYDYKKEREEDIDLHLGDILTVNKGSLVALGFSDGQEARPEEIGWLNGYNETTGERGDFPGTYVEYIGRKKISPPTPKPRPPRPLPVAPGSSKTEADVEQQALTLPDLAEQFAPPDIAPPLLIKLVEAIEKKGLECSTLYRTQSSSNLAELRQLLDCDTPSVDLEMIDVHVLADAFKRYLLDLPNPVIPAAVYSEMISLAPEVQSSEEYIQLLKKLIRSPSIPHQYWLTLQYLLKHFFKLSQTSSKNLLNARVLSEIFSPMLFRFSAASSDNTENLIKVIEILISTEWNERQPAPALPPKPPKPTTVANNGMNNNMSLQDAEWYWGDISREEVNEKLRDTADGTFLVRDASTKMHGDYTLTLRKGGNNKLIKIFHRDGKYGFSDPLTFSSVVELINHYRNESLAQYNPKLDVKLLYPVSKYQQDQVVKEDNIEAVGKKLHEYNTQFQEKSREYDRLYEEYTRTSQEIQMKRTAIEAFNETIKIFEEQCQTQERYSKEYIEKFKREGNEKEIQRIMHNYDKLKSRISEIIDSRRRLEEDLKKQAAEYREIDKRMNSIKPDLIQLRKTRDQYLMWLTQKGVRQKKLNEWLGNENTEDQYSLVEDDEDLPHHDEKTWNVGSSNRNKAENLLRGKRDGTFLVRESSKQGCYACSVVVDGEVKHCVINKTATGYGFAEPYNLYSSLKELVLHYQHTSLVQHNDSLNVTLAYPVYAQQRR
Chain of PI3-kinase p110-delta/p85-alpha (O00329 whole entry): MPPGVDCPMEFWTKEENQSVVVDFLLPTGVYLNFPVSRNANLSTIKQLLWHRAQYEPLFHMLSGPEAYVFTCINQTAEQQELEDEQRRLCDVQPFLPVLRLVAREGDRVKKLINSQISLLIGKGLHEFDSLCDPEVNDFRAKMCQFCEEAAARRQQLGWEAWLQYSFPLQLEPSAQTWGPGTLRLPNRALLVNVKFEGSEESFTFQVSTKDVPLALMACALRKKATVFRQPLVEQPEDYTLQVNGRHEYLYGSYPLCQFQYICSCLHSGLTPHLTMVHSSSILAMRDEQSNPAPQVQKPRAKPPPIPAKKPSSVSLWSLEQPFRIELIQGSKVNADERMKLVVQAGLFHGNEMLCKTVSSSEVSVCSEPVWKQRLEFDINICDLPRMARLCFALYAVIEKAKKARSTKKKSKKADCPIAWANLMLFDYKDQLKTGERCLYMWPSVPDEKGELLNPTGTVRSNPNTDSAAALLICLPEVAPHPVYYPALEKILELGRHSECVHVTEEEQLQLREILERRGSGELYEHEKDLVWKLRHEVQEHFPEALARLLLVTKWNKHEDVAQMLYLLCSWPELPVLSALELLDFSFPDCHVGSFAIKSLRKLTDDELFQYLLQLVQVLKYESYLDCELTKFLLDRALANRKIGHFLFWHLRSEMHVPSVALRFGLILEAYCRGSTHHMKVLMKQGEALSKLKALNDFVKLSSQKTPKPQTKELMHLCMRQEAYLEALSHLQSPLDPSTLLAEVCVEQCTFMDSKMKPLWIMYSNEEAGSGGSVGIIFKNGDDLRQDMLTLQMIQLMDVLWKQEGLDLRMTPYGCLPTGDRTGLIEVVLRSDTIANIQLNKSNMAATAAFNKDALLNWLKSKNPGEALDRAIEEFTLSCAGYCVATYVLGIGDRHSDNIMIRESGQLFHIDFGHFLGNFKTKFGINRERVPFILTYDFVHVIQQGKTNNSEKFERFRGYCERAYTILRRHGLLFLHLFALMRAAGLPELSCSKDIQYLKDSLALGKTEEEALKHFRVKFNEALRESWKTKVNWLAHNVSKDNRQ
Chain of Phosphatidylinositol 4,5-bisphosphate 3-kinase catalytic subunit gamma isoform (P48736 whole entry, canonical isoform): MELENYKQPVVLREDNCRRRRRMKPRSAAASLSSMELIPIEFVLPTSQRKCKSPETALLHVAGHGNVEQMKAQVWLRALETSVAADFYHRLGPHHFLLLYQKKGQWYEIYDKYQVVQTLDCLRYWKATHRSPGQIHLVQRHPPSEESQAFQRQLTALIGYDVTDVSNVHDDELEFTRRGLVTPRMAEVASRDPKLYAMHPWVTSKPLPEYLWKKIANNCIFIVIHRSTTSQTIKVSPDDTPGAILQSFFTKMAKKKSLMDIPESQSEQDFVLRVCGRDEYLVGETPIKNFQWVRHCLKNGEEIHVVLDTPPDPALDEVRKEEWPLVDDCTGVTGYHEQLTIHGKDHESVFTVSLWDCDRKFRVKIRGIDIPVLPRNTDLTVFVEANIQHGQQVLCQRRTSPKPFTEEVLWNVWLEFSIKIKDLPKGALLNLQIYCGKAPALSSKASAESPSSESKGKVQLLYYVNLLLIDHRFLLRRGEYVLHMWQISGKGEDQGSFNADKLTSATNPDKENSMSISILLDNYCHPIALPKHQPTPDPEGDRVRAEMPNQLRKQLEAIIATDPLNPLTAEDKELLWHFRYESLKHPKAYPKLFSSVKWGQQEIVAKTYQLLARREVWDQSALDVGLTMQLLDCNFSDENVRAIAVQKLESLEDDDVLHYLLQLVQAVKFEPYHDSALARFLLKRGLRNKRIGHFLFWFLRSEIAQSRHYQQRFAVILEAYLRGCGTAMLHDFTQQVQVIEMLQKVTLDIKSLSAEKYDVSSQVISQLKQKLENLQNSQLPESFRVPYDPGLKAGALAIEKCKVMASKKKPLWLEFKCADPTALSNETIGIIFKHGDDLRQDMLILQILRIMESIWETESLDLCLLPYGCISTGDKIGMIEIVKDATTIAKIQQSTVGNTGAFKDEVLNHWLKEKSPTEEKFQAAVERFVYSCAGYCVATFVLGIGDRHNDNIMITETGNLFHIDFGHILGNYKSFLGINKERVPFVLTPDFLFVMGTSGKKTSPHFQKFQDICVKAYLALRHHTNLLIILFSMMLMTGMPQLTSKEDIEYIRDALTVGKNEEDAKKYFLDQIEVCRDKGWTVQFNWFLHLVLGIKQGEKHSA
Chain of PI3-kinase p110-alpha/p85-alpha (P27986 whole entry): as the sequence (P27986 whole entry) above
Chain of PI3-kinase p110-alpha/p85-alpha (P42336 whole entry): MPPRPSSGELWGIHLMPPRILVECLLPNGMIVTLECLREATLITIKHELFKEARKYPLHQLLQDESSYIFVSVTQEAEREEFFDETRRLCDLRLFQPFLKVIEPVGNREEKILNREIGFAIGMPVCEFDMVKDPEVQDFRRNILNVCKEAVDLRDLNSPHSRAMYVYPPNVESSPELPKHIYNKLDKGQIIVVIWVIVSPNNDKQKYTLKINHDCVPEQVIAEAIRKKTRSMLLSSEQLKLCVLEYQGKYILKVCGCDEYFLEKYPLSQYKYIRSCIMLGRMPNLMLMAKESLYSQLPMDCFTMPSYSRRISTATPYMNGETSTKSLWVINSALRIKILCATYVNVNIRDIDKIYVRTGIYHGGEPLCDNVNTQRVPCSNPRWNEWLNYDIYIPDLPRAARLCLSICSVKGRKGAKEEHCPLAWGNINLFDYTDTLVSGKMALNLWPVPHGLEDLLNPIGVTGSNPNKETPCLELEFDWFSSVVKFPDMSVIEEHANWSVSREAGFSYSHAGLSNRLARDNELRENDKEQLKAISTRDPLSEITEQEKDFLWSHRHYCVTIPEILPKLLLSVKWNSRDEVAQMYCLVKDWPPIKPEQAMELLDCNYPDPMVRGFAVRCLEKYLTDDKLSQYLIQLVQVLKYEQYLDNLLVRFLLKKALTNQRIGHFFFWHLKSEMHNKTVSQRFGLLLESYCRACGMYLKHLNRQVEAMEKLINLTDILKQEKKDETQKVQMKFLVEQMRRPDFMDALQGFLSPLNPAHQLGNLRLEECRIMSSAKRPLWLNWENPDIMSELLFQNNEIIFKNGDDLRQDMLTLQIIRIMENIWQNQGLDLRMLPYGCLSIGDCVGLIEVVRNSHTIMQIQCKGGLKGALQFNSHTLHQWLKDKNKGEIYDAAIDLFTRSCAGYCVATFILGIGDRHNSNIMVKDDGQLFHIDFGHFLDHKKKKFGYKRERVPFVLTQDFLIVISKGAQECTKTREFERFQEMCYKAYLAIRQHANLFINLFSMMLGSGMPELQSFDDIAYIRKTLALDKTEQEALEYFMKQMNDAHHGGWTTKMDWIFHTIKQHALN

Compound: O=c1c2c(F)cccc2nc([C@@H]2CC3(CC3)CN2c2ncnc3[nH]cnc23)n1C1CCCC1
- IC50 [1]: 0.396 µM

Compound: Cc1cccc2nc([C@@H]3CC4(CC4)CN3c3ncnc4[nH]cnc34)n(-c3ccccc3)c(=O)c12
- IC50 [1]: 0.016 µM
- GI50 (SU-DHL-6 [2]): 0.107 µM

Compound: N#Cc1c(N)nc(N)nc1N1CC2(CC2)C[C@H]1c1nc2cccc(F)c2c(=O)n1-c1ccccc1
- IC50 [1]: 0.0054 µM
- GI50 (SU-DHL-6 [2]): 0.053 µM

Compound: Cc1nc(N)nc(N2CC3(CC3)C[C@H]2c2nc3cccc(F)c3c(=O)n2-c2ccccc2)c1C#N
- IC50 [1]: 0.0094 µM
- GI50 (SU-DHL-6 [2]): 1.04 µM

Compound: O=c1c2c(F)cccc2nc([C@@H]2CC3(CC3)CN2c2ncnc3[nH]cnc23)n1-c1ccccc1
- IC50 [1]: 0.043 µM
- GI50 (SU-DHL-6 [2]): 0.813 µM

Compound: CC[C@H](Nc1ncnc2[nH]cnc12)c1nc2cccc(F)c2c(=O)n1-c1ccccc1 [IDELALISIB]
- GI50 (SU-DHL-6 [2]): 0.034 µM

Compound: O=c1c2c(Cl)cccc2nc([C@@H]2CC3(CC3)CN2c2nc(F)nc3[nH]cnc23)n1-c1ccccc1
- IC50 [1]: 0.038 µM
- GI50 (SU-DHL-6 [2]): 2.81 µM

Compound: N#Cc1c(N)ncnc1N1CC2(CC2)C[C@H]1c1nc2ccc(F)cc2c(=O)n1-c1ccccc1
- IC50 [1]: 0.0096 µM
- GI50 (SU-DHL-6 [2]): 0.945 µM

Compound: O=c1c2c(Cl)cccc2nc([C@@H]2CC3(CC3)CN2c2nc(Cl)nc3[nH]cnc23)n1-c1ccccc1
- IC50 [1]: 0.406 µM

Compound: O=c1c2c(F)cccc2nc([C@@H]2CC3(CC3)CN2c2ncnc3[nH]cnc23)n1C1CCCCC1
- IC50 [1]: 0.444 µM

Compound: N#Cc1c(N)nc(N)nc1N1CC2(CC2)C[C@H]1c1nc2cccc(Cl)c2c(=O)n1-c1ccccc1
- Ratio IC50 (Homo sapiens [3]): 221
- IC50 [4]: 0.174 µM
- CL/F [5]: 15 mL/min/kg
- AUC(0-t) [6]: 4880 ng·h/mL
- IC50 [1]: 0.001 µM
- half-life [7]: 14.3 h
- inhibition (SU-DHL-6 [8]): Dose-dependent effect
- IC50 [9]: 0.221 µM
- bioavailability [10]: 87.5%
- inhibition (SU-DHL-6 [11]): Dose-dependent effect
- Vd [12]: 3.9 L/kg
- Ratio IC50 (Homo sapiens [13]): 4
- AUC(0-t) [14]: 5580 ng·h/mL
- IC50 [15]: 0.0043 µM
- Ratio IC50 (Homo sapiens [16]): 174
- GI50 (SU-DHL-6 [2]): 0.033 µM
- half-life [17]: 3 h

Compound: N#Cc1c(N)ncnc1N1CC2(CC2)C[C@H]1c1nc2cccc(F)c2c(=O)n1-c1ccccc1
- IC50 [1]: 0.015 µM
- GI50 (SU-DHL-6 [2]): 0.867 µM

Compound: Cc1nc(N)nc(N2CC3(CC3)C[C@H]2c2nc3cccc(Cl)c3c(=O)n2-c2ccccc2)c1C#N
- IC50 [1]: 0.0096 µM
- GI50 (SU-DHL-6 [2]): 0.716 µM

Compound: O=c1c2cc(F)ccc2nc([C@@H]2CC3(CC3)CN2c2ncnc3[nH]cnc23)n1-c1ccccc1
- IC50 [1]: 0.048 µM
- GI50 (SU-DHL-6 [2]): 0.937 µM

Compound: O=c1c2c(Cl)cccc2nc([C@@H]2CC3(CC3)CN2c2ncnc3[nH]cnc23)n1-c1ccccc1
- Ratio IC50 (Homo sapiens [3]): > 385
- IC50 [4]: 2.64 µM
- IC50 [1]: 0.013 µM
- IC50 [9]: > 5 µM
- Ratio IC50 (Homo sapiens [13]): 9
- IC50 [15]: 0.113 µM
- Ratio IC50 (Homo sapiens [16]): 203
- GI50 (SU-DHL-6 [2]): 0.601 µM

Compound: N#Cc1c(N)ncnc1N1CC2(CC2)C[C@H]1c1nc2cccc(Cl)c2c(=O)n1-c1ccccc1
- IC50 [1]: 0.0037 µM
- GI50 (SU-DHL-6 [2]): 3.42 µM

Compound: O=c1c2c(F)cccc2nc([C@@H]2CC3(CC3)CN2c2ncnc3[nH]cnc23)n1Cc1ccccc1
- IC50 [1]: 0.813 µM
